Laboratory results taken from US5084443A, “Promoting expression of acetylcholine receptors with LHRH antagonist” (Biomeasure, Inc., priority 1989, dated 1992).
Read-outs that look alike come from different tables or passages of the source.

Tests used:
[1] = system: acetylcholine receptors; assay type: in vivo, Sprague Dawley rats; conditions: for AChR (cpm) / AChR: peptide crushed; for AChR: fmoles per ug protein
[2] = system: denervated EDL muscle; experiment: Denervation atrophy of EDL muscle after peroneal nerve crush (wet muscle weight, protein content); assay type: in vivo, Sprague Dawley rats; conditions: for Muscle wt / Proteins: peptide crushed; for Muscle wt: wet EDL weight; for Proteins: ug protein content per mg muscle weight
Protocol: LHRH analogs can be tested for effectiveness in treating injured nerve tissue or preserving muscle mass according to the testing procedures described below for the LHRH analog BIM-21009. BIM-21009 is an antagonist of LHRH activity having the amino acid formula N-Acetyl-D-Naphthylalanine-D-para-Cl-Phe-D-Phe-Ser-Tyr-D-Arg-Phe-Arg-Pro-D-Ala-NH2. BIM-21009 was administered to animals both prior to and after denervation. The animals were prepared for treatment as follows.
Adult male and female Sprague Dawley rats (Hilltop) weighing approximately 250-275 g were housed in groups of three of the same sex and provided with Purina rat chow and water ad libitum. They were maintained in a 12L:12D photoperiod with lights off at 19:00 hr. Animals were divided into 2 groups having six subdivisions each of 5-7 animals: (1) four days post-lesion: "sham crushed" (i.e., sham nerve crush) males and females, "intact crushed" (i.e., nerve crush control group) males and females, and "LHRH antagonist treated and crushed" (i.e., peptide treatment after nerve crush, also referred to as "peptide crushed") males and females; and (2) twelve days post-lesion: sham crushed males and females, intact crushed males and females, and LHRH treated and crushed males and females.
All animals were anesthetized with an 8% solution of chloral hydrate (0.4 g/kg). An incision was made on the left leg and the peroneal nerve was exposed at its site of entrance into the peroneal longus muscle. The nerve was crushed with a watchmaker forcep having a uniformly filed tip of 0.2 mm, by applying pressure on the nerve for 10 seconds, rotating the forceps, and applying pressure again on the opposite side for another 10 seconds. After crush, this area of approximately 1 mm becomes translucid. This modified crush method gives well-defined axonal interruption without disrupting the connective tissue sheaths or blood vessels in the region.
All chemically treated animals received 1 s.c. injection of the LHRH antagonist BIM-21009 at a dosage of 5 mg/kg 24 hrs prior to denervation. Animals in the 12 day groups received an additional injection of 5 mg/kg 6 days after the first injection.
Dissections were performed between 13:00 and 15:00 hrs. The peroneal nerve was allowed to regenerate for 4 or 12 days, after which the animals were anesthetized with chloral hydrate (0.4 g/kg), the extensor digitorum longus ("EDL") was dissected, frozen on powdered dry ice and stored at -70° C. until the day of the assay.
The Lowry Method was used for protein determinations. Statistical analysis was performed using 2×2 ANOVA, 1 way ANOVA. Tukey's HSD test was used for post-hoc comparisons.

[3] = females, 4 days post-lesion, 5 mg/kg s.c.
[4] = females, 12 days post-lesion, 2 x 5 mg/kg s.c.
[5] = males, 4 days post-lesion, 5 mg/kg s.c.
[6] = males, 12 days post-lesion, 2 x 5 mg/kg s.c.

N-Acetyl-D-Naphthylalanine-D-para-Cl-Phe-D-Phe-Ser-Tyr-D-Arg-Phe-Arg-Pro-D-Ala-NH2 [BIM-21009]
ratio of cpm/mg muscle vs intact crushed groups ([1]; both males and females (FIG. 5)): higher ratio of cpm/mg muscle
number of ACh receptors ([1]; both sexes, at 4 days after nerve crush, more marked in males): dramatic increase
time course of effect on ACh receptor number ([1]; day 4 vs day 12 post-lesion): maximal effect at day 4 post-lesion and a minimal or null effect by day 12
AChR (cpm) [1, 3]: 23.39 cpm
AChR [1, 3]: 90.07 fmol
AChR (cpm) [1, 4]: 15.34 cpm
AChR [1, 4]: 65.74 fmol
ratio of AChR number/muscle (fM AChR/mg muscle or fM/ug protein) vs crushed group with intact gonads ([1]; male and female rats (FIGS. 3 and 4)): significantly higher ratio
AChR number/muscle weight ratio vs crushed untreated controls ([1]; males with intact gonads (FIG. 4)): higher than in the crushed untreated controls
AChR (cpm) [1, 5]: 38.37 cpm
AChR [1, 5]: 166.96 fmol
AChR (cpm) [1, 6]: 19.01 cpm
AChR [1, 6]: 82.09 fmol
atrophy of the denervated EDL muscle vs crushed control group ([2]; both at 4 days and at 12 days post-lesion, less striking in females than in males): significantly decreased
recovery from the crush-induced muscle atrophy: protein content ([2]; females as well as males (FIG. 2)): increase in protein content rather than fat accumulation or edema
Muscle wt ([2]; females, 4 days post-lesion, 5 mg/kg s.c. 24 hrs prior to denervation): 83.8 mg
Proteins [2, 3]: 4.58 µg
Muscle wt ([2]; females, 12 days post-lesion, 5 mg/kg s.c. 24 hrs prior to denervation plus 5 mg/kg 6 days later): 84.0 mg
Proteins [2, 4]: 4.23 µg
protection of EDL muscle from denervation atrophy ([2]; males): protects the EDL muscle in the males from denervation atrophy
Muscle wt ([2]; males, 4 days post-lesion, 5 mg/kg s.c. 24 hrs prior to denervation): 81.2 mg
Proteins [2, 5]: 4.05 µg
Muscle wt ([2]; males, 12 days post-lesion, 5 mg/kg s.c. 24 hrs prior to denervation plus 5 mg/kg 6 days later): 83.1 mg
Proteins [2, 6]: 4.34 µg
